In patent EP4548907A1 (SkyLab AG, priority 2023, dated 2025):
Where “and” joins values, the source holds several entries; their conditions need not be identical. Equal values may be shown once.

What was measured:
Parameters in all cases: species or system bovine
[1] = Experiment 2: surface microhardness recovery of demineralised enamel, aspartic acid with or without tricalcium phosphate; conditions: single treatment 16 hours at 37°C, solutions pH 6-6.5, n=10
Method: Enamel blocks were sectioned from bovine teeth, lapped plano-parallel and highly polished. The baseline surface microhardness of the enamel samples was then measured.
The enamel samples were artificially demineralised by immersing them in demineralisation solution for 60 minutes. Following demineralisation, the surface microhardness of the enamel samples was remeasured. The samples were then stratified between the treatment groups based upon the baseline surface microhardness.
(§1) The enamel samples in each treatment group were treated with the assigned test products for 16 hours. Following treatment, the surface microhardness of each treated enamel sample was remeasured.
(§2) The percentage of surface microhardness recovery (%SMHR) achieved by the test products was calculated and used to compare the ability of the test products to repair the demineralised enamel samples.
The pH of each solution was adjusted into the pH range shown in Table 2, using sodium hydroxide or dilute hydrochloric acid. All pH measurements were taken with a calibrated pH electrode (Serial Number: 13-620-631) and either an Accumet XI,250 ion meter (Asset Number: UK01200-LAB-15-002), or an Orion 720 ion meter (Asset Number: 4F064).
Approximately 90 enamel blocks (Measuring 4mm x 4mm) were sectioned from bovine incisors and were lapped plano-parallel (both sides) using a Logitech PM5 lapping machine (Asset number: 4F008).
(§3) The enamel surfaces of the samples were machine-polished with 1 micron and 0.3 micron aluminium oxide slurries, using a MetPrep Saphir 550 Polisher (Asset Number: UK01200-1010015-114).
(§4) The surface microhardness of each block was measured at the following time points: • At baseline. • After the demineralisation treatment. • After overnight treatment.
(§5) The surface microhardness of the enamel samples was measured using a Buehler MicroMet 5103 (Asset Number: 4F101) and OmniMet MHT software.
(§6) The Intertek CRS method for measuring the surface microhardness of the samples at each time point has been provided below: • Five Knoop indents • 50 gram load force • 10 second dwell time • X50 objective
(§7) A demineralisation solution was prepared that contained: • ▪ 50 mM Acetic acid • ▪ 2.2 mM Calcium nitrate • ▪ 2.2 mM Potassium phosphate monobasic • ▪ 0.1 ppm Sodium fluoride
The pH of the solution was adjusted to pH 4.5. All pH measurements were taken with a calibrated pH electrode (Serial Number: 13-620-631) and either an Accumet XI,250 ion meter (Asset Number: UK01200-LAB-15-002), or an Orion 720 ion meter (Asset Number: 4F064). […]
The ability of the test formulations to repair the demineralised enamel samples after a single treatment was assessed by calculating the percentage of surface microhardness recovery values (%SMHR) achieved by each test product. […]

[2] = Summary of 3 experiments in comparison with negative and positive controls; conditions: Water (Negative control) 0 units; for Comparison: units better than negative control / Comparison: units worser than negative control / Comparison: units better than fluoride: scale: Fluoride (Positive control) 100 units
Description: Table 10. Summary of 3 experiments in comparison with negative and positive controls

[3] = Experiment 3: surface microhardness recovery of demineralised enamel, aspartic acid combined with different calcium sources; conditions: single treatment 16 hours at 37°C, solutions pH 6 to 6.5 (excluding controls), n=10
Method: Enamel blocks were sectioned from bovine teeth, lapped plane-parallel, and highly polished. The baseline surface microhardness of the enamel samples was measured. The samples were then stratified between the treatment groups based on the baseline surface microhardness values.
The enamel samples were artificially demineralised by immersing them in a demineralisation solution for 60 minutes. Following demineralisation, the surface microhardness of the enamel samples was remeasured.
as §1, §2
The pH of each solution was adjusted into the pH range of pH 6 to 6.5, using sodium hydroxide or dilute hydrochloric acid (Excluding the positive and negative control). All pH measurements were taken with a calibrated pH electrode (Serial Number: VT1 8048) and an Accumet XI,250 ion meter (Asset Number: UK01200-LAB-15-002).
Approximately 130 enamel blocks (Measuring 4mm x 4mm) were sectioned from bovine incisors and were lapped plano-parallel (both sides) using a Logitech PM5 lapping machine (Asset number: 4F008).
as §3, §4, §5, §6, §7
The pH of the solution was adjusted to pH 4.5. All pH measurements were taken with a calibrated pH electrode (Serial Number: VT1 8048) and an Accumet XI,250 ion meter (Asset Number: UK01200-LAB-15-002.
The enamel blocks were demineralised by placing the samples into a Sterilin containing 8mL of demineralisation solution per sample. All demineralisation exposures were performed for 60 minutes, in an oven set to 37°C for 60 minutes.
The enamel samples were placed into their assigned test solutions for 16 hours at 37°C, whilst being agitated with a magnetic stirrer. Aquasil Putty was used to attach the 10 enamel blocks in each treatment group to a sample holder with the enamel surfaces of the samples exposed.
Following the removal of the samples from the test product, each enamel block was rinsed with deionised water for 1-2 minutes and sonicated for 10 minutes to remove any loose debris. The enamel samples were then returned to their original containers.
The ability of the test formulations to repair the demineralised enamel samples after a single treatment was assessed by calculating the percentage of surface microhardness recovery values (%SMHR) achieved by each test product.
The formula for calculating the %SMHR values achieved by each treatment is shown below: % SMRH = 100∗[(SMHPost-treatment−SMHPost-demineralisation)/(SMH; Baseline−SMH Post-demineralisation)] [formula]

[4] = Experiment 1: remineralization of demineralised enamel, surface microhardness (SMH) after single overnight treatment with calcium sources; conditions: single overnight immersion 16 hours, 37°C; for Mean (%SMR): percentage surface microhardness recovery
Method: This in vitro study was designed to compare the remineralization efficacy of the test products, following a single, overnight treatment application.
Bovine enamel blocks were sectioned, machine polished and flattened. The baseline surface microhardness of the enamel samples was measured with a Buehler MicroMet 5103 surface microhardness machine.
Each bovine enamel block was demineralised for 1 hour by immersing the sample at 37°C, in a demineralization solution described by Huang et. al. (2009)^1. Following demineralization, the surface microhardness of each enamel sample was remeasured.
All demineralized enamel samples were subjected to an overnight immersion in the assigned test product, with immersion solutions mixed and heated to 37°C during treatment. Following the overnight immersion, the surface microhardness of the enamel samples was remeasured. The study logistics were designed so that each enamel sample was demineralized and then immersed in the assigned treatment on the same day.
The ability of a single, overnight application of test products and controls to repair enamel lesions was assessed by comparing the percentage surface microhardness recoveries and the changes in surface microhardness for the treated samples.
One hundred and thirty enamel blocks, measuring 4 x 4 mm, were cut from bovine incisors and lapped planar-parallel using a Logitech PM5 lapping machine. The enamel surfaces of the samples were machine-polished using a MetPrep Saphir 550 to a final finish of 0.04 microns. One corner of each block was removed in order to ensure correct orientation on the SMH machine.
The baseline surface microhardness of the enamel samples was measured using a calibrated Buehler MicroMet 5103 microhardness indenter and Knoop diamond indenter tip.
The enamel samples were orientated with the abraded corner in the top right. Baseline surface microhardness indents were placed in the centre of the enamel samples. Five Knoop indents were placed in a vertical line at each timepoint (under a load of 50 g for 10 seconds). Surface imperfections were avoided, and outlying indents replaced.
A demineralization solution was prepared according to the following specifications: • ▪ 50 mM Acetic acid • ▪ 2.2 mM Calcium nitrate • ▪ 2.2 mM Potassium phosphate monobasic • ▪ 0.1 ppm Sodium fluoride • ▪ Final pH of the solution was adjusted to 4.5 with sodium hydroxide.
Enamel samples were mounted onto acetate squares using double-sided tape. Enamel samples were immersed in 8 ml demineralization solution per sample and placed into an oven for 1 hour (37 °C). […]
The post-demineralization surface microhardness of the enamel samples was measured using a calibrated Buehler MicroMet 5103 microhardness indenter and Knoop diamond indenter tip. […]

Question: What does the source list for `N[C@@H](CC(=O)O)C(=O)O` [Aspartic Acid 0.1 %, L-Aspartic Acid]?
Answer: Mean %SMHR [1]: 3.19%; Comparison: units better than negative control [2]: for 65 units better than negative control

Question: Which “Mean %SMHR Value” [3] does the source give for `N[C@@H](CC(=O)O)C(=O)O` [Aspartic acid 0.05 %, Aspartic acid] here?
Answer: -35.13%

Question: And the “Comparison: units better than negative control” value ([2]; listed as 0,05% Aspartic acid)?
Answer: for 17 units better than negative control

Question: For `[F-].[Na+]` [1450 ppm F, Sodium Fluoride, reference compound], which “Mean (%SMR)” value ([4]; n = 10) is on record?
Answer: 35.5556%

Question: And the “Mean (%SMR)” value ([4]; n = 10, listed as 1450 ppm Fluoride control)?
Answer: 36%

Question: What about the “Mean Change in SMH” value ([4]; post-treatment SMH minus demineralisation SMH (Knoop), n = 10) of the same compound?
Answer: 25.12

Question: What about the “mean SMH increase” value ([4]; rounded values in the text) of the same compound?
Answer: 25 HK units

Question: And the “Mean %SMHR” value [1]?
Answer: 14%

Question: What about the “Mean %SMHR” value ([1]; listed as 1450 ppm Fluoride (Positive control)) of the same compound?
Answer: 14.12%

Question: And the “Mean %SMHR Value” [3]?
Answer: 5.15%

Question: And the “Comparison: units” value ([2]; position on the scale)?
Answer: 100 units

Question: With `N[C@@H](CC(=O)O)C(=O)O` [Aspartic acid 0.2 % in distilled water, Aspartic acid] as the compound, how does the “Mean %SMHR Value” [3] read?
Answer: -87.69%

Question: What about the “Mean %SMHR Value” ([3]; listed as 0.2% Aspartic acid) of the same compound?
Answer: -88%

Question: What about the “Comparison: units worser than negative control” value [2] of the same compound?
Answer: for 70 units worser than negative control

Question: Which “Mean %SMHR Value” [3] does the source give for `N[C@@H](CC(=O)O)C(=O)O` [Aspartic acid 0,2% in artificial saliva, Aspartic acid] here?
Answer: 16,21%

Question: What about the “Comparison: units better than fluoride” value ([2]; listed as Aspartic acid 0,2% in artifical saliva) of the same compound?
Answer: for 25 units better than fluoride

Question: Which results are given for `N[C@@H](CC(=O)O)C(=O)O` [Aspartic Acid 0.5 %, L-Aspartic Acid]?
Answer: Mean %SMHR [1]: -37% and -37.32%; Comparison: units better than negative control ([2]; listed as Aspartic acid 0,5% in distilled water): for 90 units better than negative control

Question: With `N[C@@H](CC(=O)O)C(=O)O` [Aspartic acid 0,1% in artifical saliva, Aspartic acid] as the compound, how does the “Comparison: units better than fluoride” value [2] read?
Answer: for 2 units better than fluoride

Question: What does the source list for `N[C@@H](CC(=O)O)C(=O)O` [Aspartic acid 0.4 %, Aspartic acid]?
Answer: Mean %SMHR Value [3]: -91.74%; Mean %SMHR Value ([3]; listed as 0.4% Aspartic acid): -92%; Comparison: units worser than negative control ([2]; listed as Aspartic acid 0,4% in distilled water): for 82 units worser than negative control
